Reference: patent US10202420B2, “Methods and compositions for treatment of cartilage and disc tissue pathologies” (THE ROYAL INSTITUTION FOR ADVANCEMENT OF LEARNING/MCGILL …, priority 2013, dated 2019)
Where no end group is shown, it is not given here.

Assays:
[1] = LIVE/DEAD cell viability in alginate beads; assay type: cell-based; conditions: bovine, bovine intervertebral disc NP and AF cells in alginate beads, 1 μg/ml, 18 days, alginate scaffolds, read-out: cellular viability
Method: Coccygeal IVDs from healthy 20-24 month old steers were obtained from a local abattoir at 2-3 hours after slaughter. The IVDs were separated from their adjacent vertebral bodies, and the cells were isolated from the NP and AF regions by sequential digestion with 0.2% Pronase followed by 0.125% Collagenase digestion as previously described. After isolation, the NP and AF cells were either immediately embedded in alginate beads or were plated in 6 well plates for protein extraction.
After isolation the NP and AF cells were resuspended in 1.2% alginate (dissolved in 0.15 M NaCl) at a concentration of 2 million cells per ml. Alginate was chosen to assess the effect on matrix production in the absence of extensive cell proliferation. Droplets of cell suspension were released through an 18-gauge needle into 102 mM calcium chloride solution and were let to polymerize for 10 minutes. Alginate beads were subsequently stabilized for 7 days in culture media (Dulbecco's Modified Eagle Medium high glucose supplemented with 10% fetal bovine serum and antibiotics). […]
Cell viability was assessed at day 18 on the alginate beads using a live/dead fluorescence assay (Live/Dead®, Invitrogen) and visualized by fluorescent microscopy.

human NP cells = assay: Stability of Link N in the presence of cells (monolayer, mass spectrometry); assay type: in vitro ADME; conditions: Link N 1 μg/mL, 37° C.
Method: (§1) To evaluate the stability of Link N, freshly isolated human cells from NP and AF regions were plated in 6 well culture plates at a density of 250,000 cells per well. Cells were cultured at 37° C., 5% CO2 in 3 mL DMEM, containing 4.5 g/L glucose and supplemented with 10% FCS, 25 mmol/L HEPES, 50 μg/mL gentamicin sulphate, 0.25 μg/mL fungizone, 50 μg/mL L-ascorbate, and 2 mmol/L GlutaMAX. The wells were left for 2 days before exposure to Link-N (1 μg/mL). 200 μL medium was collected at fixed time points (0 h, 6 h, 12 h, 24 h, 36 h, and 48 h). Stability of the peptide was also studied at the same time points in the absence of cells.
(§2) 25 μL medium samples, collected from the monolayer cultures described above or peptide digests were purified on C18 spin columns according to standard protocols (Harvard Apparatus, Holliston, Mass.). Eluted peptides were reconstituted in 20 μL, 2% acetonitrile and 0.2% formic acid (FA). Samples were injected and quantified using a triple quadropole mass spectrometer TSQ Vantage™ (Thermo Scientific, Waltham, Mass.) equipped with an easy nano-LC system (Thermo Scientific). The mass spectrometer was operated in SRM mode, with both Q1 and Q3 settings at unit resolution (FWHM 0.7 Da). A spray voltage of +1,700 V was used with a heated ion transfer setting of 270° C. for desolvation. Data were acquired using the Xcalibur software (version 2.1). […]

human AF cells = assay: Stability and processing of Link N in the presence of cells (monolayer, mass spectrometry); assay type: in vitro ADME; conditions: for peak area intensity of intact Link N in the presence of AF cells: human AF cells in monolayer
Method: as §1
as §2, with “2.1). Mobile phases used were A (0.1% FA in water) and B (100% acetonitrile in 0.1% FA). Separation was performed on 10 μm tip, 75 μm×15 cm capillary columns (PicoTip™ emitter, New Objective, Woburn, Mass.) packed with Reprosil-Pur C18-AQ resin (3 μm, Dr. Maich GmbH, Switzerland). 1 μL sample was injected and separation was performed at a flow rate of 300 nL/min using a gradient of 97% mobile phase A for 5 min, 85% A for 8 min, 65% A for 42 min, and 19% A for 45-50 min.” for “2.1).”

ADAMTS 4 = biological target: T1, ADAMTS 4 (Homo sapiens, UniProt O75173); assay: Proteinase treatment of Link N, peak area by mass spectrometry; assay type: in vitro ADME; conditions: 30 minutes, 2 and 24 hours
T1 construct: purchased R&D Systems
Method: (§3) 300 μg Link N 1-16 was incubated for 30 minutes, 2 and 24 hours in the presence of 10 different proteinases. The buffer used for MMPs 3, 7, 12, 13, ADAMTS 4,5, HTRA1 was composed of 50 mM Tris-HCl, 200 mM NaCl, 5 mM CaCl2, 0.01% Rapigest. For cathepsins K, B, and L, the digest buffer was composed of 2.5 mM DTT, 0.15% chondroitin sulfate A, 0.1 M sodium acetate, pH 5.5.
(§4) 25 μL medium samples, collected from the monolayer cultures described above or peptide digests were purified on C18 spin columns according to standard protocols (Harvard Apparatus, Holliston, Mass.). Eluted peptides were reconstituted in 20 μL, 2% acetonitrile and 0.2% formic acid (FA). Samples were injected and quantified using a triple quadropole mass spectrometer TSQ Vantage™ (Thermo Scientific, Waltham, Mass.) equipped with an easy nano-LC system (Thermo Scientific). The mass spectrometer was operated in SRM mode, with both Q1 and Q3 settings at unit resolution (FWHM 0.7 Da). A spray voltage of +1,700 V was used with a heated ion transfer setting of 270° C. for desolvation. Data were acquired using the Xcalibur software (version 2.1). Mobile phases used were A (0.1% FA in water) and B (100% acetonitrile in 0.1% FA). Separation was performed on 10 μm tip, 75 μm×15 cm capillary columns (PicoTip™ emitter, New Objective, Woburn, Mass.) packed with Reprosil-Pur C18-AQ resin (3 μm, Dr. Maich GmbH, Switzerland). 1 μL sample was injected and separation was performed at a flow rate of 300 nL/min using a gradient of 97% mobile phase A for 5 min, 85% A for 8 min, 65% A for 42 min, and 19% A for 45-50 min.

ADAMTS 5 = biological target: T2, ADAMTS 5 (Homo sapiens, UniProt Q9UNA0); assay: as above; assay type: in vitro ADME; conditions: 30 minutes, 2 and 24 hours
T2 construct: purchased R&D Systems
Method: as §3, §4

HTRA1 = biological target: T3, HTRA1 (Homo sapiens, UniProt Q92743); assay: as above; assay type: in vitro ADME; conditions: 30 minutes, 2 and 24 hours
T3 construct: purchased Thermo Scientific
Method: as §3, §4

MMP 12 = biological target: T4, MMP 12 (Homo sapiens, UniProt P39900); assay: as above; assay type: in vitro ADME; conditions: 30 minutes, 2 and 24 hours
T4 construct: purchased R&D Systems
Method: as §3, §4

MMP 13 = biological target: T5, MMP 13 (Homo sapiens, UniProt P45452); assay: as above; assay type: in vitro ADME; conditions: 30 minutes, 2 and 24 hours
T5 construct: purchased R&D Systems
Method: as §3, §4

MMP 3 = biological target: T6, MMP 3 (Homo sapiens, UniProt P08254); assay: as above; assay type: in vitro ADME; conditions: 30 minutes, 2 and 24 hours
T6 construct: purchased R&D Systems
Method: as §3, §4

MMP 7 = biological target: T7, MMP 7 (Homo sapiens, UniProt P09237); assay: as above; assay type: in vitro ADME; conditions: 30 minutes, 2 and 24 hours
T7 construct: purchased R&D Systems
Method: as §3, §4

cathepsin B = cathepsin B (Homo sapiens, UniProt P07858); assay: as above; assay type: in vitro ADME; conditions: 30 minutes, 2 and 24 hours
Method: as §3, §4

cathepsin K = biological target: T8, cathepsin K (Homo sapiens, UniProt P43235); assay: as above; assay type: in vitro ADME
T8 sequence (P43235 115-329): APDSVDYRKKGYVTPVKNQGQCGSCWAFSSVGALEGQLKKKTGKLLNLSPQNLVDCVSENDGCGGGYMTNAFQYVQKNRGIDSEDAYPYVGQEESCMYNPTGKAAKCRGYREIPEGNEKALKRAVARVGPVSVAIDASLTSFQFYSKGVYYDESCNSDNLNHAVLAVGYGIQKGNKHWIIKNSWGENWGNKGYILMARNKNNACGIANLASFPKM
Method: as §3, §4

cathepsin L = cathepsin L (Homo sapiens, UniProt P07711); assay: as above; assay type: in vitro ADME; conditions: 30 minutes, 2 and 24 hours
Method: as §3, §4

[2] = cited from earlier work
[3] = test system: bovine annulus fibrosus (AF) cells; assay: Proteoglycan synthesis by 35SO4 incorporation, cells in alginate beads; assay type: cell-based; conditions: 48 h, 16-mer peptides 1 μg/mL, 8-mer peptides 0.5 μg/mL, vs medium alone
Method: (§5) Human and bovine IVDs were separated from the adjoining vertebral body and divided into NP and AF for bovine IVDs and NP and inner annulus fibrosus (iAF) for human IVDs. Tissue from the human outer annulus fibrosus (oAF) was not used for cell isolation in this study. Cells were enzymatically isolated from each region as previously described (63). Briefly, NP and AF tissues were dissected into approximately 2-mm thick pieces, washed twice in PBS containing 50 μg/mL gentamicin, […] and 0.25 μg/mL fungizone, then digested with 0.2% pronase for 1 h, followed by collagenase type IA at 0.01% for NP and 0.04% for AF tissue for 4 h in serum free DMEM.
(§6) To compare the metabolic response to the various Link N peptides, freshly isolated human and bovine cells from NP and AF regions were embedded in 1.2% alginate beads, as previously described (65). Cells in alginate beads were cultured at 37° C., 5% CO2 in DMEM, containing 4.5 g/L glucose and supplemented with 10% FCS, 25 mmol/L HEPES, 50 μg/mL gentamicin sulphate, 0.25 μg/mL fungizone, 50 μg/mL L-ascorbate, and 2 mmol/L GlutaMAX. The beads were stabilized for 7 days and cell viability was assessed by Live/Dead® assay prior to further treatment. 5 beads per well were then cultured in 48 well plates in the presence of equimolar concentrations of either Link N (1 μg/mL), R-Link N (1 μg/mL), S-Link N (1 μg/mL), Link N 1-8 (0.5 μg/mL) or Link N 9-16 (0.5 μg/mL) in 0.5 mL DMEM. 25 μCi/mL ^35SO4 was added to the medium to allow assessment of proteoglycan synthesis (66). In addition, beads were exposed for 48 h to IL-1β (10 ng/mL) alone, or to a combination of peptides and IL-1β (51). At the end of the culture period, medium was collected and dialyzed exhaustively against miliQ water at […] (Spectra/Por® 3), followed by cold chase with 1M MgSO4 for 2 h to remove any remaining unincorporated ^35SO4. The ^35SO4 incorporation was measured using a beta scintillation counter (Beckman Coulter LS6500, Beckman Coulter, Mississauga, Canada).

[4] = test system: bovine nucleus pulposus (NP) cells; assay: as above; assay type: cell-based; conditions: 48 h, 16-mer peptides 1 μg/mL, 8-mer peptides 0.5 μg/mL, vs medium alone
Method: as §5, §6

[5] = test system: human inner annulus fibrosus (iAF) cells; assay: as above; assay type: cell-based; conditions: human AF (iAF) cells, 48 h; for proteoglycan synthesis (35SO4 incorporation): 16-mer peptides 1 μg/mL, 8-mer peptides 0.5 μg/mL, vs medium alone
Method: (§7) Human thoracolumbar spines were retrieved through the Transplant Quebec organ donation program. Discs were obtained from 7 donors, 1 male and 6 female, with a mean age of 29.6 years and an age range of 16 to 47 years (Table 1). Donors having had recent chemotherapy, radiation therapies to the spine, or significant long-standing paralysis were excluded from the study. Spine retrieval was performed within 8 h of death. Discs with calcification and loss of disc height were not included in the study. All procedures were approved by the institutional review board of the Montreal General Hospital.
as §5, §6

[6] = test system: human nucleus pulposus (NP) cells; assay: as above; assay type: cell-based; conditions: 48 h; for proteoglycan synthesis (35SO4 incorporation): 16-mer peptides 1 μg/mL, 8-mer peptides 0.5 μg/mL, vs medium alone
Method: as §7, §5, §6

[7] = test system: cells from degenerated disc tissue; conditions: Wang et al.; 100 ng/mL; monolayer-expanded cells in 3D culture; cited from earlier work
[8] = IL-1β 10 ng/mL, vs IL-1-containing medium

Chain of cathepsin L (P07711 114-333): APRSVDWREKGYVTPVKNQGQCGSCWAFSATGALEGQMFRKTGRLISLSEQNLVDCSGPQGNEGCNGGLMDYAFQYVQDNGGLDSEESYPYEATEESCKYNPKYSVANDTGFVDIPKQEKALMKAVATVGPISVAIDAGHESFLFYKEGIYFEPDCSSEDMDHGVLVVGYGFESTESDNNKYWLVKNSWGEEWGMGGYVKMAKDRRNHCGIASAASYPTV
T3 sequence (Q92743 23-480): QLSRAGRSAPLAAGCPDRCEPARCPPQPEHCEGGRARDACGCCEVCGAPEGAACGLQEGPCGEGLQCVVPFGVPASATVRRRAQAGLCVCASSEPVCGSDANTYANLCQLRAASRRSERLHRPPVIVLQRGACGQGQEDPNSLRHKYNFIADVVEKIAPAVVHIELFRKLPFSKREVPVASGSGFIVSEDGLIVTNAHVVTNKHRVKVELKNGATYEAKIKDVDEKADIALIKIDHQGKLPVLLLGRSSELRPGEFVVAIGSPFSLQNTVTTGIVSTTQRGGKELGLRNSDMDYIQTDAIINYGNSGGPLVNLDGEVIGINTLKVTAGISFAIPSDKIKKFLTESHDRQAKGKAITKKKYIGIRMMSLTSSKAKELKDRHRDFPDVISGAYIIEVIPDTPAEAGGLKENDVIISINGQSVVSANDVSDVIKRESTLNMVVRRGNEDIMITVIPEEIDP
T6 sequence (P08254 100-477): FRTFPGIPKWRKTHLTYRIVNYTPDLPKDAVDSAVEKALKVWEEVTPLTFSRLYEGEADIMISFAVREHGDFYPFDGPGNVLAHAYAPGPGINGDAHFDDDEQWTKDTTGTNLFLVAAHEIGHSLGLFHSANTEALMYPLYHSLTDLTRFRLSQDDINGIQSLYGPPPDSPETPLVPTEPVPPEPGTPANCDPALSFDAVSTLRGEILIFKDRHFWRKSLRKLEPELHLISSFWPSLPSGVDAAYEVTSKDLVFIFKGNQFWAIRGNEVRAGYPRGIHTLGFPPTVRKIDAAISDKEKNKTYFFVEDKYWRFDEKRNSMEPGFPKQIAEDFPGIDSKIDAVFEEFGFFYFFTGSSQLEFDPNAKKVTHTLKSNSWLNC
T2 sequence (Q9UNA0 262-930): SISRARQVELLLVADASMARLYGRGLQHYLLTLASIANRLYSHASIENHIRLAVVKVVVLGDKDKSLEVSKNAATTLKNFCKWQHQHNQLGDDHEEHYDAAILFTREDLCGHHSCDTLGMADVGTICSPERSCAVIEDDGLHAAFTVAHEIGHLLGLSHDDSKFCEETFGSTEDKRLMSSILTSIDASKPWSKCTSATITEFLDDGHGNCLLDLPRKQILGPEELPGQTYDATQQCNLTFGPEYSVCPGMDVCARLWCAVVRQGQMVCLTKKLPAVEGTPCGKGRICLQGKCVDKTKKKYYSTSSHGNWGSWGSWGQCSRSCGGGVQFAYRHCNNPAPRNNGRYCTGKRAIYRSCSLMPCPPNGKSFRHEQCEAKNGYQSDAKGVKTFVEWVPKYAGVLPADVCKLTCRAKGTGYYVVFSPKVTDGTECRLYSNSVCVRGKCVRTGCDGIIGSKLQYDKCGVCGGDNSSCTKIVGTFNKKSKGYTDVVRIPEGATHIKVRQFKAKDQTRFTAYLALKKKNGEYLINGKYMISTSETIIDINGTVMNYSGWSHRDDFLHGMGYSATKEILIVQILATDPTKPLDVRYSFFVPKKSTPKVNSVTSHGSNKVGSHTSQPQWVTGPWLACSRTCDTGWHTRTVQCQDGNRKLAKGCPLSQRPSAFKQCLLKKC
T7 sequence (P09237 95-267): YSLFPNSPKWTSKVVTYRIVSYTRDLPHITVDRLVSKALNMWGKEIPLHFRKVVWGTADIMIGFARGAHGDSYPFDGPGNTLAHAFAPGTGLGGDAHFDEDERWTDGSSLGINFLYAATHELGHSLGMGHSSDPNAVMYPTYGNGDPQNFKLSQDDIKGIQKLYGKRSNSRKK
T4 sequence (P39900 106-470): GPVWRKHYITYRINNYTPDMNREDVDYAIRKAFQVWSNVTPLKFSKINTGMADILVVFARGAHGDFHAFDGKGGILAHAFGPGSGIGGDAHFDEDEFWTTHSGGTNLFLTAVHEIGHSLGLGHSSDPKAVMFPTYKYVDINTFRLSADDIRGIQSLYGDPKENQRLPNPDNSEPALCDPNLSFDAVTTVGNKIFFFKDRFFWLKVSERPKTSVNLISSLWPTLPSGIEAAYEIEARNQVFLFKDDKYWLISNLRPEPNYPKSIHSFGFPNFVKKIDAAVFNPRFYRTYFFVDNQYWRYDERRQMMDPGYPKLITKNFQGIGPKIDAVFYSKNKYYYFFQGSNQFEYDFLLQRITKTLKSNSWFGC
T1 sequence (O75173 213-837): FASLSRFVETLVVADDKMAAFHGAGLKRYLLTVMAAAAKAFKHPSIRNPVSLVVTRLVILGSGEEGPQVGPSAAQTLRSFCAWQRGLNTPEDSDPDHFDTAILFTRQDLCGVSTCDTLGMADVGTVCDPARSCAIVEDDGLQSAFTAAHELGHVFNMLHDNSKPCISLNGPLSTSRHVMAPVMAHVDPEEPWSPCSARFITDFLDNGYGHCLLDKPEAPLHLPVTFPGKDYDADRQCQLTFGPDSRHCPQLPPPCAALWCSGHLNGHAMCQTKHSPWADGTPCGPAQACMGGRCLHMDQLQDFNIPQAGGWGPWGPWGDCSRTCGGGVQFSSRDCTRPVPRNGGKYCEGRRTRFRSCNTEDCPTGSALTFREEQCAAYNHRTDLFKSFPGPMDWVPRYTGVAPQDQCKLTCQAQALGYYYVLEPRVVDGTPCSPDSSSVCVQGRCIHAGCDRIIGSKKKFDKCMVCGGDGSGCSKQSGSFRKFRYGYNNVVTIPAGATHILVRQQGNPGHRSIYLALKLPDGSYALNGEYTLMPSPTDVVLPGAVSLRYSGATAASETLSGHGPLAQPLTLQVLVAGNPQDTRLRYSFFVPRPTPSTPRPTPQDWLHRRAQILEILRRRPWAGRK

DHHSDNYTVDHDRVIH [BLN, DHHSDNYTVDHDRVIH]
viability at 432 h, 1 µg/mL [1]: > 98%

DHLSDNYTLDHDRAIH [Link N, DHLSDNYTLDHDRAIH]
time the peptide was stable in the presence of NP cells (human NP cells): at least 48 h
processed product of Link N identified by tandem mass spectrometry (human AF cells; AF cell culture medium, 964.4 Da peptide): a peptide spanning residues 1 to 8 was generated
peak area intensity of intact Link N in the presence of AF cells (human AF cells; after 48 h): only trace amounts were present
peak area intensity of intact Link N in the presence of AF cells (human AF cells; by 6 h): decrease
peak area intensity of the 1922 Da Link 1-16 peptide (ADAMTS 4): un-affected
peak area intensity of the 1922 Da Link 1-16 peptide (ADAMTS 5): un-affected
peak area intensity of the 1922 Da Link 1-16 peptide (HTRA1): un-affected
peak area intensity of the 1922 Da Link 1-16 peptide (MMP 12): un-affected
peak area intensity of the 1922 Da Link 1-16 peptide (MMP 13): un-affected
peak area intensity of the 1922 Da Link 1-16 peptide (MMP 3): un-affected
peak area intensity of the 1922 Da Link 1-16 peptide (MMP 7): un-affected
peak area intensity of the 1922 Da Link 1-16 peptide (cathepsin B): un-affected
peak area intensity of the 1922 Da Link 1-16 peptide (cathepsin K; 2 and 24 hours): hardly detectable
peak area intensity of the 1922 Da Link 1-16 peptide (cathepsin K; 30 minutes): significantly diminished
cleavage of Link N by cathepsin K (MRM of Link 1-8 and Link 9-16) (cathepsin K; 2 hours): single cleavage between amino acids 8 and 9
peak area intensity of the 1922 Da Link 1-16 peptide (cathepsin L): un-affected
viability at 432 h, 1 µg/mL [1]: > 98%
retention of Link N in the human disc [2]: only lost slowly through the endplate and not AF

DLNRAHLHIDYHTDSD [S-Link N, scrambled Link N]
proteoglycan synthesis (35SO4 incorporation) [3]: no effect was observed
proteoglycan synthesis (35SO4 incorporation) [4]: no effect was observed
proteoglycan synthesis (35SO4 incorporation) [5]: no response
proteoglycan synthesis (35SO4 incorporation) [6]: no response

HIARDHDLTYNDSLHD [R-Link N, reverse Link N]
proteoglycan synthesis (35SO4 incorporation) [3]: no effect was observed
proteoglycan synthesis (35SO4 incorporation) [4]: no effect was observed
proteoglycan synthesis (35SO4 incorporation) [5]: no response
proteoglycan synthesis (35SO4 incorporation) [6]: no response

LDHDRAIH [Link N 9-16, second 8 peptide residues of Link N]
proteoglycan synthesis (35SO4 incorporation) [3]: no effect was seen
proteoglycan synthesis (35SO4 incorporation) [4]: no effect was seen
proteoglycan synthesis (35SO4 incorporation) [5]: no response
proteoglycan synthesis (35SO4 incorporation) in the presence of IL-1β [5, 8]: no response
proteoglycan synthesis (35SO4 incorporation) [6]: no response
proteoglycan synthesis (35SO4 incorporation) in the presence of IL-1β [6, 8]: no response

residue 1-12 peptide: Link N-derived peptide spanning amino acid residues 1-12, tested by Wang et al. (DHLSDNYTLDHD; UniProt P10915 16-27, looked up, fragment)
stimulatory effect (cell-associated sulphated GAG) [7]: inactive
